According to patent US20230009323A1, “COMPOUNDS AND METHODS FOR THE TREATMENT OF CRYPTOSPORIDIOSIS” (The Broad Institute, Inc., priority 2019, published 2023):
Read-outs that look alike come from different tables or passages of the source.

Legend:
[1] = test system: C. parvum Iowa isolate (Bunch Grass Farm); assay: C. parvum Iowa isolate (Bunch Grass Farm) growth in HCT-8 cells, high-content microscopy; format: cell-based; settings: Cryptosporidium parvum
Method: A high-content microscopy assay was used to measure activity of compounds against C. parvum grown in the human adenocarcinoma cell line HCT-8 (ATCC) as disclosed in Bessoff, K., et al., Antimicrobial agents and chemotherapy 57, 1804-1814, doi:10.1128/AAC.02460-12 (2013), hereby incorporated by reference in its entirety. HCT-8 cells were cultured in 384-well clear-bottomed plates in 50 μL per well of RPMI 1640 medium ([…]), 120 U·mL^−1 penicillin, and 120 μg·mL^−1 streptomycin (ATCC) at 37° C. under 5% CO2. For compound screening and follow-up SAR studies, confluent cell monolayers were infected with C. parvum Iowa isolate oocysts [Bunch Grass Farm (Deary, Id.); ˜5,500 oocysts per well] after inducing excystation by treatment for 10 min at 37° C. with 10 mM HCl and then 10 min at 16° C. in 2 mM sodium taurocholate. Compounds were added at the indicated concentrations 3 h after monolayer infection. After incubation (37° C., 5% CO2) for 48 h, the cells were washed three times with PBS containing 111 mM D-Galactose and fixed by adding an equal volume of 8% formaldehyde in PBS. Cell monolayers were then prepared for microscopy by permeabilizing with 0.1% Triton X-100, washing three times with PBS with 0.1% Tween 20, blocking with 4% bovine serum albumin (BSA) in PBS for 2 h at 37° C. or 4° C. overnight, and staining parasitophorous vacuoles with 1.33 μg·mL^−1 of fluorescein-labeled Vicia villosa lectin (Vector Laboratories) diluted in 1% BSA in PBS with 0.1% Tween 20 for 1 h at 37° C. DNA was then stained by adding Hoechst 33258 (AnaSpec) at a final concentration of 0.09 mM diluted in water, followed by washing five times with PBS containing 0.1% Tween 20. Images were acquired using a Nikon Eclipse TE2000 epifluorescence microscope with an automated stage that was programmed using NIS-Elements Advanced Research software (Nikon) to focus on the center of each well and take a 3×3 composite image using an EXi Blue fluorescence microscopy camera (QImaging) with a 20× objective (numerical aperture 0.45). Nucleus and parasite images were exported separately as tif files and analyzed using NIH ImageJ and previously reported macros, and data analysis and graphing were done using GraphPad Prism software, version 6.01. […]

C. hominis (TU 502) = assay: C. hominis TU502 growth in HCT-8 cells; format: cell-based; settings: Cryptosporidium hominis
Method: Studies using farm C. parvum isolates and the C. hominis TU502 isolate were performed by Calibr at Scripps Research (La Jolla, Calif.) in 1,536-well plates using a slightly modified immunofluorescence assay as described in Love, M. S. et al. PLoS neglected tropical diseases 11, e0005373, doi:10.1371/journal.pntd.0005373 (2017), hereby incorporated by reference in its entirety. HCT-8 cell culture medium was replaced with RPMI 1640 medium supplemented with 2% heat-inactivated horse serum, 100 U·mL^−1 penicillin, and […] 24 h prior to infection with the indicated isolate. The C. parvum Iowa isolate was included as a reference in all experiments. Imaging was performed using a Cellnsight CX5 High Content screening platform (Thermo Scientific) with a 10× objective and acquisition of one microscopic field per well. Images were processed using HCS Studio Scan software, and the selected-object count (HCT-8 cells) and spot count (parasitophorous vacuoles) were analyzed in Genedata Screener (version 13.0; Standard). Dose-response curves and EC50 values were calculated using the Smart Fit function of Genedata Analyzer.

[2] = test system: C. parvum Iowa isolate (Bunch Grass Farms); assay: C. parvum time-kill curve assay in HCT-8 cells; format: cell-based, Cryptosporidium parvum
Method: Time-kill curve assays were performed in 384-well plates using C. parvum Iowa isolate oocysts (Bunch Grass Farms, Deary, Id.) following infection of HCT-8 cell monolayers as described in Jumani, R. S. et al. Antimicrobial agents and chemotherapy 62, e01505-01517 (2018), hereby incorporated by reference in its entirety. […] Single-phase exponential decay curves were fit using GraphPad Prism software version 6.01 after normalizing the percentage of host cells infected to the vehicle control value at each time point, which isolates the effect of compound treatment from the spontaneous reduction in parasite numbers that occurs in this culture system.

With COc1ccc(NC(=O)N2CCCCN3[C@H](CN(C)C)[C@H](c4ccc(C#Cc5ccccc5)cc4)[C@@H]3C2)cc1 [Compound 11, (8R,9S,10S)-10-((dimethylamino)methyl)-N-(4-methoxyphenyl)-9-(4-(phenylethynyl)phenyl)-1,6-diazabicyclo[6.2.0]decane-6-carboxamide] the EC50 ([1]; read-out: C. parvum (Iowa) (1% FBS) BGF EC50) was 9 nM, the EC50 ([1]; read-out: C. parvum (Iowa) (10% FBS) BGF EC50) was 73 nM and the EC50 ([1]; serum not given, read-out: C. parvum EC50) was < 73 nM. For the same molecule, the EC50 (C. hominis (TU 502)) was 10 nM, the “parasites per nucleus at 80 h” value ([2]; compound at EC50) was ~60% and the “parasites per nucleus at 80 h” value ([2]; compound at EC90) was ~30%. For the same molecule, the “time required to eliminate 99.9% of parasites” value ([2]; normalized to vehicle control) was ~95 h.
